The species entered for data set [1] is Homo sapiens. Put plainly: Selectivity ratio IC50 for inhibition of recombinant human CYP1A2 to inhibition of recombinant human CYP1B1.
For data set [2], the target named is T1, Cytochrome P450 1B1 (Homo sapiens, UniProt Q16678).
T1 sequence (Q16678 whole entry): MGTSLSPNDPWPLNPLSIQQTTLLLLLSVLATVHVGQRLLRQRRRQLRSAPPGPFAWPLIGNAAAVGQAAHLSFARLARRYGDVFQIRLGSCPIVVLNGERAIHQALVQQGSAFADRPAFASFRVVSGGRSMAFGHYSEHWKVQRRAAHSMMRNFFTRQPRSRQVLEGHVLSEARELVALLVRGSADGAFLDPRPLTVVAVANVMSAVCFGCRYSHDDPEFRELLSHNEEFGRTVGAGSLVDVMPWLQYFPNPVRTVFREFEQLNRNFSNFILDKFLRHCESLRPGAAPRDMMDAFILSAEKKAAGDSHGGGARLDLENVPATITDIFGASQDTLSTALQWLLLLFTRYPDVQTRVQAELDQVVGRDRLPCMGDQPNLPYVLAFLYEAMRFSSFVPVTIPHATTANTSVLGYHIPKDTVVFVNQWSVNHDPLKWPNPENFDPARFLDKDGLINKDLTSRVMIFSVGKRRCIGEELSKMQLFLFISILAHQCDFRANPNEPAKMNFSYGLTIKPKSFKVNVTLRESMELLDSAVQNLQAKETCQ
Put plainly: Inhibition of recombinant human CYP1B1 expressed in baculovirus infected insect cells using 7-ethoxyresorufin as substrate preincubated for 5 mins followed by NADPH addition and measured after 15 mins by EROD assay.

Data set [3] has as its target von Hippel-Lindau disease tumor suppressor/Cytochrome P450 1B1 (Homo sapiens, UniProt Q16678+P40337). In words: Protac activity at E3 ubiquitin ligase/CYP1B1 (unknown origin) expressed in human DU145 cells assessed as induction of CYP1B1 degradation by immunoblotting analysis. The class given is cell-based. To be noted: du-145.
The target in data set [4] is T2, Cytochrome P450 1A2 (Homo sapiens, UniProt P05177).
T2 sequence (P05177 whole entry): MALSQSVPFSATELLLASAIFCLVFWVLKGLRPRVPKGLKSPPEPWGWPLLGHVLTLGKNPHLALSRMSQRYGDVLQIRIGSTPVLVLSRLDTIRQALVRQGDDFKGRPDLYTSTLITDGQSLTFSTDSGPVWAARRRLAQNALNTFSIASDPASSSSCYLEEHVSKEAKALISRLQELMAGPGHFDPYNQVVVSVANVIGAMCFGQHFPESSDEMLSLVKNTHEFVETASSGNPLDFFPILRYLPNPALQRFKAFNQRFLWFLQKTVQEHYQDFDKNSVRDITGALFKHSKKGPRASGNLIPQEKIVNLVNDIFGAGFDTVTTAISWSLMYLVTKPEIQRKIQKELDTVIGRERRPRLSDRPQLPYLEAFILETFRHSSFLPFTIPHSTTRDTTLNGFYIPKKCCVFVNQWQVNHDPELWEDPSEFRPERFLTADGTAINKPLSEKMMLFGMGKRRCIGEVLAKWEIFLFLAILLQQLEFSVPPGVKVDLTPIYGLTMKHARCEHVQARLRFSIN
In words: Inhibition of recombinant human CYP1A2 expressed in baculovirus infected insect cells using 7-ethoxyresorufin as substrate preincubated for 5 mins followed by NADPH addition and measured after 35 mins by EROD assay. Type of data set: ADME.

Data set [5] deals with DU-145. Put plainly: Cytotoxicity against human DU-145 cells over expressing CYP1B1 assessed as reduction in cell viability after 48 hrs by MTT assay. Type of data set: functional, cell-based. To be noted: DU-145, 48 h.
Data set [6] can be described thus: Selectivity ratio of IC50 for cytotoxicity against human DU-145 cells over expressing CYP1B1 to cytotoxicity against human DU-145 cells. Type of data set: functional.
In data set [7] the test system is DU-145. In words: Cytotoxicity against human DU-145 cells assessed as reduction in cell viability after 48 hrs by MTT assay. Type of data set: functional, cell-based. To be noted: DU-145, 48 h. On the technique in general: Tetrazolium dyes change colour on reduction, which living cells bring about.

Each structure is given as a SMILES string. pIC50: −log10 of the molar value.

The pIC50 is the IC50 on a negative log10 scale, so that one unit is a factor of ten.

von Hippel-Lindau disease tumor suppressor/Cytochrome P450 1B1, sequence (P40337 whole entry, one chain of several): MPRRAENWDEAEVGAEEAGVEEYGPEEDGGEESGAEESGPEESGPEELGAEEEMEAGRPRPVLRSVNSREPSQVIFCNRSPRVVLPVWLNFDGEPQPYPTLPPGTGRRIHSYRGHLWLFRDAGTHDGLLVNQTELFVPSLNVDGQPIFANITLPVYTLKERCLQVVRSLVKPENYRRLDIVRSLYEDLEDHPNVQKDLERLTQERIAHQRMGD

For the compound `COc1ccc(OC)c2c1c(OC)cc1c(=O)cc(-c3ccc(-c4cn(CCCCCOc5cccc6c5C(=O)N(C5CCC(=O)NC5=O)C6=O)nn4)cc3)oc12` (configuration not stated), in data set [1], the Ratio IC50 was 56.1. Also, the figures for the pIC50 in data set [2] and in data set [4] were 6.82 and 5.07, respectively. Moreover, the outcome in data set [3] was Active.
As to `COc1ccc(OC)c2c1c(OC)cc1c(=O)cc(-c3ccc(-c4cn(CCCCCCOc5cccc6c5C(=O)N(C5CCC(=O)NC5=O)C6=O)nn4)cc3)oc12` (configuration not stated), the Ratio IC50 in data set [1] was found to be 104. Moreover, the values for the pIC50 in data set [2] and in data set [4] were 7.02 and 5.01, respectively. Also, in data set [3], the Activity entry was “Dose-dependent effect and Tde”.
For `COc1ccc(OC)c2c1c(OC)cc1c(=O)cc(-c3ccc(Cl)cc3)oc12`, in data set [1], the Ratio IC50 worked out at 62. For the same compound, the pIC50 in data set [2] was 9.22; in data set [4] it was 7.43.
Turning to `C#Cc1ccc(-c2cc(=O)c3cc(OC)c4c(OC)ccc(OC)c4c3o2)cc1`, in data set [1], the Ratio IC50 was found to be 422. Moreover, the pIC50 is 8.68 in data set [2] and 6.05 in data set [4]. Also, the Activity entry in data set [3] is “Not Active”.
Consider `[N-]=[N+]=NCCCCCCCCOc1cccc2c1C(=O)N(C1CCC(=O)NC1=O)C2=O` (configuration not stated), for which the pIC50 in data set [2] and in data set [4] was less than 5.00 throughout. Besides, the Activity result in data set [3] is recorded as “Not Active”.
Consider `COc1ccc(OC)c2c1c(OC)cc1c(=O)cc(-c3ccc(-c4c[nH]nn4)cc3)oc12`, for which the Ratio IC50 in data set [1] turned out to be 120. The pIC50 in data set [2] was 9.40; in data set [4], 7.32.
`[N-]=[N+]=NCCOc1cccc2c1C(=O)N(C1CCC(=O)NC1=O)C2=O` (configuration not stated): the pIC50 in data set [2] and in data set [4] was less than 5.00 each time.
With `CC(=O)O[C@@]12CO[C@@H]1C[C@H](O)[C@@]1(C)C(=O)[C@H](O)C3=C(C)[C@@H](OC(=O)[C@H](O)[C@@H](NC(=O)OC(C)(C)C)c4ccccc4)C[C@@](O)([C@@H](OC(=O)c4ccccc4)[C@H]21)C3(C)C` [DOCETAXEL ANHYDROUS], the pIC50 was 7.36 in data set [5] and 8.31 in data set [7]. For the same compound, the “Ratio IC50” value in data set [6] is 9.
Take `[N-]=[N+]=NCCCCCCOc1cccc2c1C(=O)N(C1CCC(=O)NC1=O)C2=O` (configuration not stated): the pIC50 in data set [2] and in data set [4] was less than 5.00 in each case.
In the case of `[N-]=[N+]=NCCCCCOc1cccc2c1C(=O)N(C1CCC(=O)NC1=O)C2=O` (configuration not stated), the pIC50 in data set [2] and in data set [4] was less than 5.00 throughout. In addition, in data set [3], the Activity entry is “Not Active”.
For the compound `COc1ccc(OC)c2c1c(OC)cc1c(=O)cc(-c3ccccc3)oc12`, the Ratio IC50 in data set [1] was 18.4. For the same compound, the pIC50 in data set [2] was 8.85; in data set [4], 7.59.
For `COc1ccc(OC)c2c1c(OC)cc1c(=O)cc(-c3ccc(-c4cn(CCOc5cccc6c5C(=O)N(C5CCC(=O)NC5=O)C6=O)nn4)cc3)oc12` (configuration not stated), the Ratio IC50 in data set [1] came out at 89.2. The negative logarithm of the IC50 (pIC50) in data set [2] is 6.99; in data set [4] it was 5.04. In data set [3], the result was Active.
The corresponding values for `COc1ccc(OC)c2c1c(OC)cc1c(=O)cc(-c3ccc(-c4cn(CCCCCCCCOc5cccc6c5C(=O)N(C5CCC(=O)NC5=O)C6=O)nn4)cc3)oc12` (configuration not stated) are 44.8, 6.78, 5.13 and “Not Active”.

These data come from ChEMBL document CHEMBL4680161, “Design and synthesis of α-naphthoflavone chimera derivatives able to eliminate cytochrome P450 (CYP)1B1-mediated drug resistance via targeted CYP1B1 degradation” (Eur J Med Chem, 2020).
